Test results from ChEMBL document CHEMBL4715829, “Heterodimeric Rifampicin-Tobramycin conjugates break intrinsic resistance of Pseudomonas aeruginosa to doxycycline and chloramphenicol in vitro and in a Galleria mellonella in vivo model” (Eur J Med Chem, 2019).

How the values were obtained:
Assay type in all cases: functional
Pseudomonas aeruginosa [1] = assay: Antibacterial activity against Pseudomonas aeruginosa 262-101856 assessed as fractional inhibitory concentration incubated for 18 hrs in presence of minocycline by broth microdilution assay
Pseudomonas aeruginosa [2] = assay: Potentiation of chloramphenicol-induced antibacterial activity against Pseudomonas aeruginosa 264-101354 assessed as fold change in chloramphenicol MIC at 9.8 uM incubated for 18 hrs in presence of chloramphenicol by broth microdilution assay relative to control
Pseudomonas aeruginosa [3] = assay: Potentiation of chloramphenicol-induced antibacterial activity against Pseudomonas aeruginosa 101885 assessed as fold change in chloramphenicol MIC at 7.6 uM incubated for 18 hrs in presence of chloramphenicol by broth microdilution assay relative to control
Pseudomonas aeruginosa [4] = assay: Antibacterial activity against Pseudomonas aeruginosa 262-101856 assessed as reduction in bacterial growth by measuring doxycycline MIC at 16 ug/ml incubated for 18 hrs in presence of doxycycline by broth microdilution assay (reference value: 1024 ug/ml); conditions: dose 16 µg/ml

CO[C@H]1/C=C/O[C@@]2(C)Oc3c(C)c(O)c4c(O)c(c(/C=N/N5CCN(Cc6cn(CCCCCCO[C@@H]7[C@@H](O[C@H]8O[C@H](CO)[C@@H](O)[C@H](N)[C@H]8O)[C@H](N)C[C@H](N)[C@H]7O[C@H]7O[C@H](CN)[C@@H](O)C[C@H]7N)nn6)CC5)c(O)c4c3C2=O)NC(=O)/C(C)=C\C=C\[C@H](C)[C@H](O)[C@@H](C)[C@@H](O)[C@@H](C)[C@H](OC(C)=O)[C@@H]1C.Cl.Cl.Cl.Cl.Cl
FIC (Pseudomonas aeruginosa [1]): <0.063
fold change (FC) (Pseudomonas aeruginosa [2]): 4

CO[C@H]1/C=C/O[C@@]2(C)Oc3c(C)c(O)c4c(O)c(c(/C=N/N5CCN(Cc6cn(CCCCCCCCCCCCO[C@@H]7[C@@H](O[C@H]8O[C@H](CO)[C@@H](O)[C@H](N)[C@H]8O)[C@H](N)C[C@H](N)[C@H]7O[C@H]7O[C@H](CN)[C@@H](O)C[C@H]7N)nn6)CC5)c(O)c4c3C2=O)NC(=O)/C(C)=C\C=C\[C@H](C)[C@H](O)[C@@H](C)[C@@H](O)[C@@H](C)[C@H](OC(C)=O)[C@@H]1C.O=C(O)C(F)(F)F.O=C(O)C(F)(F)F.O=C(O)C(F)(F)F.O=C(O)C(F)(F)F.O=C(O)C(F)(F)F
fold change (FC) (Pseudomonas aeruginosa [3]): 4

CO[C@H]1/C=C/O[C@@]2(C)Oc3c(C)c(O)c4c(O)c(c(/C=N/N5CCN(C)CC5)c(O)c4c3C2=O)NC(=O)/C(C)=C\C=C\[C@H](C)[C@H](O)[C@@H](C)[C@@H](O)[C@@H](C)[C@H](OC(C)=O)[C@@H]1C [RIFAMPIN]
MIC (Pseudomonas aeruginosa [4]): 1020 µg/mL
